Where two headings read alike, the source gives them in different places.
Tests used:
[1] = tested on: morningglory (Ipomoea spp.) (IPOSS); experiment: post-emergent herbicidal test, morningglory; format: in vivo
Description: (§1) Seeds of several different weed species were planted in sandy loam soil containing only trace organic matter. Propagules were sown in individuals rows using one species per row across the width of an aluminum flat (19.5×9.5×6 cm). The grass weeds planted were green foxtail (Setaria viridis) ("SETVI"), wild oat (Avena fatua) ("AVEFA"), barnyard grass (Enchinochloa crusgalli) ("ECHCG"). Broadleaf weeds utilized were wild mustard (Brassica kaber), also known as Sinapis arvensis, ("SINAR"), velvetleaf (Abutilon theophrasti) ("ABUTH") and morningglory (Ipomoea spp.) ("IPOSS"). Additionally, yellow nutsedge (Cyperus esculentus) ("CYPES"), nutlets were sown. Seeding depths ranged from 1.0 to 1.5 cm and plant densities ranged from 3 to 25 plants per row depending on individual plant species.
(§2) The flats were placed into a greenhouse and watered overhead by sprinkling. The greenhouse environmental systems provided the plants with natural and artificial (via metal halide lamps) lighting to attain 14 hours of light per day. Day and night temperatures were maintained at 29° and 21° C. respectively. The plants were grown for 10 to 12 days (or to the appropriate growth stage) prior to compound application. Grasses were sprayed at a 3 to 4 leaf stage and broadleaves at a 1 to 2 leaf stage. Yellow nutsedge was 5 to 7 cm tall at application.
(§3) Solutions of the test compounds were prepared by weighing out 18.8 and 74.7 mg for 1 and 4 kg/ha applications respectively, of the test compound into a 60 ml wide-mouth bottle, then dissolving the compound in 14.0 ml of deionized water containing 0.5% v/v Tween 20' (polyoxyethylene sorbitan monolaurate emulsifier) as a surfactant. Additional solvents, not exceeding 2 ml (15% of spray volume), were used if needed to dissolve the compound.
(§4) The plants were sprayed inside an enclosed linear spray table with the nozzle set at 30.5 cm (12 inches) above the foliage.
(§5) Treated plants were then returned to a greenhouse and watered daily without wetting the foliage.
(§6) The degree of weed control was evaluated 17-21 days after application and recorded as percentage of control as compared to the growth of the same species in an untreated control flat of the same. Percent control is the total injury to the plants due to all factors including: inhibited emergence, stunting, malformation, chlorosis and other types of plant injury. The control ratings range from 0 to 100 percent, where 0% represents no effect with growth equal to the untreated control and where 100% represents complete kill.

[2] = tested on: wild mustard (Brassica kaber), also known as Sinapis arvensis (SINAR); experiment: post-emergent herbicidal test, wild mustard; format: in vivo
Description: as §1, §2, §3, §4, §5, §6

[3] = tested on: farnesyl pyrophosphate synthase in daffodil chromoplasts; experiment: inhibition of farnesyl pyrophosphate synthase in daffodil chromoplasts (14C-isopentenyl pyrophosphate incorporation); format: biochemical, Narcissus pseudonarcissus; settings: unit inferred, IC50 values in nM, read-out: IC50
Method: The IC50 value may be determined as follows. Daffodil chromoplasts are diluted to a volume of 500 microliters in a buffer containing 0.5M sucrose, 3 mM MgCl2, 1 mM ethylenediaminetetraacetic acid, 20 mM N-tris[hydroxymethyl]methyl-2-aminoethanesulfonic acid, […] N-[2-hydroxyethyl]-piperazine-N'-[2-ethanesulfonic acid], 5 mM L-cysteine, 10 mM sodium fluoride, and 0.1% bovine serum albumin at pH 7.7. The inhibitor to be tested may be dissolved in water other suitable solvent and then added to the reaction mixture. The assay is started by the addition of ^14 C-labeled isopentenyl pyrophosphate (52 Ci/mol) to give a final concentration in the assay of about 3 micromolar. The mixture is incubated at 30° C. with gentle agitation for a period of about 30 min. The reaction may be stopped by the addition of 0.5 mL of saturated NaCl and 2 mL of n-butanol saturated with water. After thorough mixing, the turbid suspensions are centrifuged briefly to separate the layers, and 1 mL of the bright yellow upper butanol layer is added to 10 mL of a suitable scintillation fluid which gives a single phase. The butanol soluble radioactivity is then measured in a scintillation counter.
In addition, the problem of variable quenching differences among different experiments can be essentially eliminated by determining the incorporation of radioactivity relative to controls. Each set of experiments requires two control tubes identical to the test samples except that they contain no inhibitor. One of these is quenched immediately (TO sample) and one is quenched at the end of the normal incubation period (T100 sample).
For each concentration of inhibitor examined the % residual activity is determined from the formula [formula]
Tightly closed daffodil flowers (Narcissus pseudonarcissus) were allowed to open at room temperature. […] Coronae were placed in twice their weight of isolation buffer consisting of 67 mM potassium phosphate, 0.74M sucrose, 5 mM MgCl2, and 0.2% polyvinyl-pyrrolidone at pH 7.6 and were disrupted by 30 seconds of homogenization at high speed in a Waring-type blender. The mixture was filtered through several layers of cheesecloth and 2 layers of 100 micron nylon mesh, and the resulting filtrate was centrifuged at 1000×g for 10 minutes. The pellet was discarded and supernatant was centrifuged at 22,000×g for 20 minutes. […] This solution was centrifuged at 22,000×g for 20 minutes to give orange pellets which were suspended in a buffer of 100 mM tris(hydroxymethyl)aminomethane at pH 7.6 containing 5mM MgCl2 and 2 mM dithiothreitol (1 ml per 10 coronae). This solution was frozen in liquid nitrogen and then stored at -80° C.
Thawed daffodil chromoplasts (100-150 microliters) were diluted to a final volume of 500 microliters in a buffer containing 0.5M sucrose, 3 mM MgCl2, 1 mM ethylenediaminetetraacetic acid, 10 mM N-[2-hydroxyethyl]piperazine-N^1 -[2-ethanesulfonic acid], 5 mM L-cysteine, 10 mM sodium fluoride, and 0.1% bovine serum albumin at pH 7.7. The inhibitor to be tested was dissolved in water or other suitable solvent and was added to the reaction mixture. The assay was started by the addition of ^14 C-labeled isopentenyl pyrophosphate (52 Ci/mol) to give a final concentration in the assay of about 3 micromolar. The mixture was incubated at 30° C. with gentle agitation for a period of about 30 minutes. The reaction was stopped by the addition of 0.5 mL of saturated NaCl and 2 mL of n-butanol saturated with water. After thorough mixing, the turbid suspensions were centrifuged briefly to separate the layers, and 1 mL of the bright yellow upper butanol layer was added to 10 mL of a suitable scintillation fluid which gave a single phase. The butanol soluble radioactivity was then measured in a scintillation counter. Each set of experiments required two control tubes identical to the test samples except that they contain no inhibitor.

[4] = tested on: velvetleaf (Abutilon theophrasti) (ABUTH); experiment: post-emergent herbicidal test, velvetleaf; format: in vivo
Description: as §1, §2, §3, §4, §5, §6

[5] = tested on: yellow nutsedge (Cyperus esculentus) (CYPES); experiment: post-emergent herbicidal test, yellow nutsedge; format: in vivo
Description: as §1, §2, §3, §4, §5, §6

[6] = tested on: barnyard grass (Enchinochloa crusgalli) (ECHCG); experiment: post-emergent herbicidal test, barnyard grass; format: in vivo
Description: as §1, §2, §3, §4, §5, §6

[7] = tested on: green foxtail (Setaria viridis) (SETVI); experiment: post-emergent herbicidal test, green foxtail; format: in vivo
Description: as §1, §2, §3, §4, §5, §6

[8] = tested on: wild oat (Avena fatua) (AVEFA); experiment: post-emergent herbicidal test, wild oat; format: in vivo
Description: as §1, §2, §3, §4, §5, §6

[9] = Ipomoea, post-emergence, read-out: IPOSS percent control
[10] = Brassica, post-emergence, read-out: SINAR percent control
[11] = Abutilon theophrasti, post-emergence, read-out: ABUTH percent control
[12] = Cyperus, post-emergence, read-out: CYPES percent control
[13] = Echinochloa crus-galli, post-emergence, read-out: ECHCG percent control
[14] = Setaria viridis, post-emergence, read-out: SETVI percent control
[15] = Avena fatua, post-emergence, read-out: AVEFA percent control
[16] = Ipomoea, post-emergence, post-emergent, 1.0 kg/ha (*), 17-21 days after application, read-out: IPOSS percent control
[17] = Brassica, post-emergence, post-emergent, 1.0 kg/ha (*), 17-21 days after application, read-out: SINAR percent control
[18] = Abutilon theophrasti, post-emergence, post-emergent, 1.0 kg/ha (*), 17-21 days after application, read-out: ABUTH percent control
[19] = Cyperus, post-emergence, post-emergent, 1.0 kg/ha (*), 17-21 days after application, read-out: CYPES percent control
[20] = Echinochloa crus-galli, post-emergence, post-emergent, 1.0 kg/ha (*), 17-21 days after application, read-out: ECHCG percent control
[21] = Setaria viridis, post-emergence, post-emergent, 1.0 kg/ha (*), 17-21 days after application, read-out: SETVI percent control
[22] = Avena fatua, post-emergence, post-emergent, 1.0 kg/ha (*), 17-21 days after application, read-out: AVEFA percent control
[23] = post-emergent, 1.0 kg/ha (*), 17-21 days after application

| SMILES | IC50 ([3]; Table I) | IC50 ([3]; Table II) | pest or weed control at 1000 g/ha [1, 16] | pest or weed control at 1000 g/ha [2, 17] | pest or weed control at 1000 g/ha [4, 18] | pest or weed control at 1000 g/ha [5, 19] | pest or weed control at 1000 g/ha [6, 20] | pest or weed control at 1000 g/ha [7, 21] | pest or weed control at 1000 g/ha [8, 22] | other results |
| --- | --- | --- | --- | --- | --- | --- | --- | --- | --- | --- |
| CCNCC(P(=O)(O)O)P(=O)(O)O [Compound 20] | 150 nM | 150 nM |  |  |  |  |  |  |  | pest or weed control at 1000 g/ha [1, 9]: 0%; pest or weed control at 1000 g/ha [2, 10]: 10%; pest or weed control at 1000 g/ha [4, 11]: 0%; pest or weed control at 1000 g/ha [5, 12]: 15%; pest or weed control at 1000 g/ha [6, 13]: 60%; pest or weed control at 1000 g/ha [7, 14]: 50%; pest or weed control at 1000 g/ha [8, 15]: 40% |
| CC1CCCN(CC(P(=O)(O)O)P(=O)(O)O)C1 (stereo not drawn) [Compound 21] | 385 nM | 385 nM | 10% | 30% | 0% | 5% | 30% | 50% | 50% |  |
| CCOCCNCC(P(=O)(O)O)P(=O)(O)O [Compound 22] | 1160 nM | 1660 nM | 5% | 40% | 5% | 0% | 15% | 20% | 0% |  |
| CNCC(O)(P(=O)(O)O)P(=O)(O)O [Compound 23] | 500000 nM | > 500000 nM |  |  |  |  |  |  |  | pest or weed control at 4000 g/ha [1, 9]: 0%; pest or weed control at 4000 g/ha [2, 10]: 0%; pest or weed control at 4000 g/ha [4, 11]: 0%; pest or weed control at 4000 g/ha [5, 12]: 0%; pest or weed control at 4000 g/ha [6, 13]: 0%; pest or weed control at 4000 g/ha [7, 14]: 0%; pest or weed control at 4000 g/ha [8, 15]: 0% |
| CCCCN(CCCC)CC(P(=O)(O)O)P(=O)(O)O [Compound 24] | 190 nM | 190 nM | 5% | 30% | 0% | 10% | 98% | 85% | 98% |  |
| CNCC(P(=O)(O)O)P(=O)(O)O [Compound 25] | 1680 nM | 1680 nM |  |  |  |  |  |  |  | pest or weed control at 1000 g/ha [1, 9]: 90%; pest or weed control at 1000 g/ha [2, 10]: 100%; pest or weed control at 1000 g/ha [4, 11]: 98%; pest or weed control at 1000 g/ha [5, 12]: 85%; pest or weed control at 1000 g/ha [6, 13]: 100%; pest or weed control at 1000 g/ha [7, 14]: 100%; pest or weed control at 1000 g/ha [8, 15]: 100% |
| CC(NCC(P(=O)(O)O)P(=O)(O)O)c1ccccc1 (stereo not drawn) [Compound 26] | 1430 nM | 1430 nM | 10% |  |  |  | 80% |  | 80% | SINAR percent control [2, 23]: 40%; ABUTH percent control [4, 23]: 20%; CYPES percent control [5, 23]: 5%; SETVI percent control [7, 23]: 60% |
| CC(NCC(P(=O)(O)O)P(=O)(O)O)c1ccccc1 (stereo not drawn) [Compound 27] | 1230 nM | 1230 nM |  |  |  |  |  |  |  | IPOSS percent control [1, 23]: 5%; SINAR percent control [2, 23]: 100%; ABUTH percent control [4, 23]: 75%; CYPES percent control [5, 23]: 75%; ECHCG percent control [6, 23]: 90%; SETVI percent control [7, 23]: 90%; AVEFA percent control [8, 23]: 80% |
| O=P(O)(O)C(CNCCc1ccccc1)P(=O)(O)O [Compound 28] | 1410 nM | 1410 nM | 5% | 50% | 5% | 10% | 5% | 30% | 60% |  |
| O=P(O)(O)C(CN1CCCCCC1)P(=O)(O)O [Compound 29] | 360 nM | 360 nM | 15% | 85% | 0% | 0% | 60% | 60% | 60% |  |
| CC1CCN(CC(P(=O)(O)O)P(=O)(O)O)CC1 [Compound 30] | 266 nM | 266 nM | 30% | 100% | 5% | 5% | 90% | 95% | 90% |  |

Source: patent publication US5756423A, “Method of controlling plants by inhibition of farnesyl pyrophosphate synthase” (Zeneca Limited, priority 1997, dated 1998)
